Results from publication PMC10584170, “Machine learning-based phenotypic imaging to characterise the targetable biology of Plasmodium falciparum male gametocytes for the development of transmission-blocking antimalarials” (PLOS Pathogens, 2023).
Like-named read-outs stand apart in the source and are kept apart here.

What was measured:
[1] = system: P. falciparum female gametocytes; assay: P. falciparum Dual Gamete Formation Assay (PfDGFA), female readout (Pfs25-positive female gametes); assay type: cell-based, Plasmodium falciparum NF54
Method in brief: (§1)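 Two sex-specific readouts come from one well: male exflagellation centres recorded by brightfield video right after activation, and female gametes scored by Cy3-anti-Pfs25 fluorescence after 24 h at 28°C.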

[2] = system: P. falciparum male gametocytes; assay: P. falciparum Dual Gamete Formation Assay (PfDGFA), male readout (exflagellation); assay type: cell-based, Plasmodium falciparum NF54; details: for Activity: hit = >50% inhibition in male or female readout in at least 3 replicates, 0 = no class assigned
Method in brief: as §1

[3] = 2µM, 24h preincubation with gametocytes prior to induction of gametogenesis, average of replicates
[4] = 2µM, 24h preincubation with gametocytes prior to induction of gametogenesis, replicate R1
[5] = 2µM, 24h preincubation with gametocytes prior to induction of gametogenesis, replicate R3
[6] = 2µM, 24h preincubation with gametocytes prior to induction of gametogenesis, replicate R4
[7] = 2µM, 24h preincubation, hits selected on >50% inhibition in the female readout across replicates
[8] = 2µM, 24h preincubation, hits selected on >50% inhibition in the male readout across replicates
[9] = PfDGFA at 2µM, 24h preincubation
[10] = PfDGFA at 2µM, 24h preincubation with gametocytes, average of replicates
[11] = PfDGFA at 2µM, 24h preincubation with gametocytes, replicate R1
[12] = PfDGFA at 2µM, 24h preincubation with gametocytes, replicate R3
[13] = PfDGFA at 2µM, 24h preincubation with gametocytes, replicate R4
[14] = number of replicates with >50% inhibition in the female readout, 2µM
[15] = number of replicates with >50% inhibition in the male readout, 2µM

Structure (SMILES) | Average inhibition female (%) [1, 3] [%] | % inhibition female (individual replicates) R1 [1, 4] [%] | % inhibition female (individual replicates) R3 [1, 5] [%] | % inhibition female (individual replicates) R4 [1, 6] [%] | HitlevelF [1, 7] | Average inhibition male (%) [2, 3] [%] | % inhibition male (individual replicates) R1 [2, 4] [%] | % inhibition male (individual replicates) R4 [2, 6] [%] | HitlevelM [2, 8] | Activity [2, 9] | % inhibition male (individual replicates) R3 [2, 5] [%] | other results
O=C(O)C(F)(F)F.c1ccc(CN2CCC(NCc3ccc(-c4cccc(CNC5CCCC5)c4)cc3)CC2)cc1 [TCMDC-140491] | 15.2 | 11.0 | 20.4 | 13.9 | 0 | 4.9 | 9.8 | -11.4 | 0 | 0 |  | 
CC(C)CNCc1ccc(-c2cccc(CN(CCN(C)C)C(=O)CCC3CCCC3)c2)cc1.O=C(O)C(F)(F)F [TCMDC-140553] |  |  |  |  |  |  |  |  |  |  |  | Average inhibition female (%) [1, 10]: 30.3%; % inhibition female (individual replicates) R1 [1, 11]: 23.2%; % inhibition female (individual replicates) R3 [1, 12]: 20.6%; % inhibition female (individual replicates) R4 [1, 13]: 42.3%; HitlevelF [1, 14]: 0; Average inhibition male (%) [2, 10]: 71.6%; % inhibition male (individual replicates) R1 [2, 11]: 58.5%; % inhibition male (individual replicates) R3 [2, 12]: 51.6%; % inhibition male (individual replicates) R4 [2, 13]: 94.9%; HitlevelM [2, 15]: 4
CC(C)(CN)c1nc(-c2ccc(Br)c(O)c2)c(-c2ccncc2)[nH]1.Cl [TCMDC-140680] |  |  |  |  |  |  |  |  |  |  |  | Selectivity ratio F ([1]; HepG2 Tox50 versus female IC50): 175.05; inhibition at 2 µM ([1]; Plasmodium falciparum, PfDGFA at 2µM, 24h preincubation with gametocytes, average of replicates, read-out: Average inhibition female (%)): 96%; inhibition at 2 µM ([1]; Plasmodium falciparum, PfDGFA at 2µM, 24h preincubation with gametocytes, replicate R1, read-out: % inhibition female (individual replicates) R1): 91.3%; inhibition at 2 µM ([1]; Plasmodium falciparum, PfDGFA at 2µM, 24h preincubation with gametocytes, replicate R2, read-out: % inhibition female (individual replicates) R2): 95.4%; inhibition at 2 µM ([1]; Plasmodium falciparum, PfDGFA at 2µM, 24h preincubation with gametocytes, replicate R3, read-out: % inhibition female (individual replicates) R3): 104%; inhibition at 2 µM ([1]; Plasmodium falciparum, PfDGFA at 2µM, 24h preincubation with gametocytes, replicate R4, read-out: % inhibition female (individual replicates) R4): 93%; IC50 ([1]; Plasmodium falciparum, PfDGFA, 24 h incubation with gametocytes before induction, female gamete readout, read-out: Female IC50): 570 nM; HitlevelF [1, 14]: 4; Selectivity Ratio M ([2]; HepG2 Tox50 versus male IC50): 67.46; inhibition at 2 µM ([2]; Plasmodium falciparum, PfDGFA at 2µM, 24h preincubation with gametocytes, average of replicates, read-out: Average inhibition male (%)): 80.7%; inhibition at 2 µM ([2]; Plasmodium falciparum, PfDGFA at 2µM, 24h preincubation with gametocytes, replicate R1, read-out: % inhibition male (individual replicates) R1): 55.5%; inhibition at 2 µM ([2]; Plasmodium falciparum, PfDGFA at 2µM, 24h preincubation with gametocytes, replicate R2, read-out: % inhibition male (individual replicates) R2): 95.4%; inhibition at 2 µM ([2]; Plasmodium falciparum, PfDGFA at 2µM, 24h preincubation with gametocytes, replicate R3, read-out: % inhibition male (individual replicates) R3): 94%; inhibition at 2 µM ([2]; Plasmodium falciparum, PfDGFA at 2µM, 24h preincubation with gametocytes, replicate R4, read-out: % inhibition male (individual replicates) R4): 77.9%; IC50 ([2]; Plasmodium falciparum, PfDGFA, 24 h incubation with gametocytes before induction, exflagellation readout, read-out: Male IC50): 1480 nM; HitlevelM [2, 15]: 4
CN1CCC(N2CCN(CCOc3cc(NC(=O)/C=C/c4ccccc4Cl)ccc3Br)CC2)CC1.O=C(O)C(=O)O [TCMDC-140962] | 8.6 | 14.8 | -6.3 | 11.7 | 0 | 15.3 | 25.8 | 17.6 | 0 | 0 | -8.5 | 
COc1cc2c(cc1OCCN1CCC(N)CC1)N(C(=O)/C=C/c1ccccc1Cl)CC2.Cl [TCMDC-140969] | 11.8 | 7.5 | 2.9 | 33.3 | 0 | 28.3 | 26.3 | 42.2 | 0 | 0 | 11.1 | 
CC1(CCN2CCC(c3c[nH]c4cnccc34)CC2)CCCc2c(Br)cccc2C1=O.Cl (stereo not drawn) [TCMDC-141171] | 14.9 | 12.8 | 15.8 | 19.7 | 0 | 55.1 | 49.5 | 49.8 | 1 | 0 |  | 
CC1(CCCCN2CCC(c3c[nH]c4cnccc34)CC2)C(=O)Nc2cccc(Cl)c21 (stereo not drawn) [TCMDC-141177] | 23.5 | 22.1 | 12.9 | 47.7 |  | 42.5 | 42.7 | 48.2 |  |  | 28.4 | HitlevelF ([1]; 2µM, 24h preincubation, number of replicates with >50% inhibition in the female readout): 0; HitlevelM ([2]; 2µM, 24h preincubation, number of replicates with >50% inhibition in the male readout): 1
